By pEC50 is commonly meant −log10 of the EC50, conventionally taken in molar units.

The source of these data is patent publication US10294234B2, “HIV inhibitor compounds” (priority 2017, dated 2019).

SMILES strings stand for the structures. pEC50: −log10 of the molar value.

One assay relates to HIV-1 (IIIB) in MT-4 cells. Briefly: MT-4 HIV assay. It counts as cell-based. The settings on record: Human immunodeficiency virus 1, MT4, 120 h. In a few lines: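 Antiviral activity was read by Cell Titer Glo after a 5-day, 37 °C culture of MT-4 cells pre-infected with a 1:250 dilution of HIV-1 (IIIB). Compounds were tested as threefold dilution series in complete RPMI. Controls were no drug, mock infection and 5 uM AZT.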
Consider `COC(=O)N[C@H](C(=O)N[C@@H](Cc1ccc(-c2cnc(N3C[C@H]4C[C@@H]3CN4C3COC3)nc2)cc1)[C@@H](O)CN(Cc1c(F)cc(-c2ccn(CC(F)F)n2)cc1F)NC(=O)[C@@H](NC(=O)OC)C(C)(C)C(F)(F)F)C(C)(C)C(F)(F)F` [Example 191, Methyl ((5S,8S,9S,14S)-11-(4-(1-(2,2-difluoroethyl)-1H-pyrazol-3-yl)-2,6-difluorobenzyl)-16,16,16-trifluoro-9-hydroxy-15,15-dimethyl-8-(4-(2-((1R,4R)-5-(oxetan-3-yl)-2,5-diazabicyclo[2.2.1]heptan-2-yl)pyrimidin-5-yl)benzyl)-3,6,13-trioxo-5-(1,1,1-trifluoro-2-methylpropan-2-yl)-2-oxa-4,7,11,12-tetraazahexadecan-14-yl)carbamate], for which the pEC50 was 7.76.

`COC(=O)N[C@H](C(=O)N[C@@H](Cc1ccc(-c2ccc(N3C[C@H]4C[C@@H]3CN4C3COC3)nc2)cc1)[C@@H](O)CN(Cc1c(F)cc(-c2ccn(C3CC3)n2)cc1F)NC(=O)[C@@H](NC(=O)OC)C(C)(C)C(F)(F)F)C(C)(C)C(F)(F)F` [Example 194, Methyl ((5S,8S,9S,14S)-11-(4-(1-cyclopropyl-1H-pyrazol-3-yl)-2,6-difluorobenzyl)-16,16,16-trifluoro-9-hydroxy-15,15-dimethyl-8-(4-(6-((1R,4R)-5-(oxetan-3-yl)-2,5-diazabicyclo[2.2.1]heptan-2-yl)pyridin-3-yl)benzyl)-3,6,13-trioxo-5-(1,1,1-trifluoro-2-methylpropan-2-yl)-2-oxa-4,7,11,12-tetraazahexadecan-14-yl)carbamate] had a pEC50 of 8.14.

Take `COC(=O)N[C@H](C(=O)N[C@@H](Cc1ccc(-c2ccc(N3C[C@H]4C[C@@H]3CN4C3COC3)nc2)cc1)[C@@H](O)CN(Cc1c(F)cc(-c2ccn(C(F)F)n2)cc1F)NC(=O)[C@@H](NC(=O)OC)C(C)(C)C(F)(F)F)C(C)(C)C(F)(F)F` [Example 196, Methyl ((5S,8S,9S,14S)-11-(4-(1-(difluoromethyl)-1H-pyrazol-3-yl)-2,6-difluorobenzyl)-16,16,16-trifluoro-9-hydroxy-15,15-dimethyl-8-(4-(6-((1R,4R)-5-(oxetan-3-yl)-2,5-diazabicyclo[2.2.1]heptan-2-yl)pyridin-3-yl)benzyl)-3,6,13-trioxo-5-(1,1,1-trifluoro-2-methylpropan-2-yl)-2-oxa-4,7,11,12-tetraazahexadecan-14-yl)carbamate]: the negative logarithm of the EC50 (pEC50) was 7.98.

Still in this assay, the particulars now being: Human immunodeficiency virus 1, MT4, 120 h; HIV-1 (IIIB), MT-4 cells, 5 days, Cell Titer Glo; read-out: EC50.
In the case of `CCC(=O)N[C@H](C(=O)N[C@@H](Cc1ccc(C#Cc2cnc(N3CC4CCC(C3)N4C3COC3)nc2)cc1)[C@@H](O)CN(Cc1c(F)cc(-c2ccn(C(F)F)n2)cc1F)NC(=O)[C@@H](NC(=O)CC)C(C)(C)C(F)(F)F)C(C)(C)C(F)(F)F` [Example 181, (2S)—N-((2S,3S)-4-(1-(4-(1-(difluoromethyl)-1H-pyrazol-3-yl)-2,6-difluorobenzyl)-2-((S)-4,4,4-trifluoro-3,3-dimethyl-2-propionamidobutanoyl)hydrazinyl)-3-hydroxy-1-(4-((2-(8-(oxetan-3-yl)-3,8-diazabicyclo[3.2.1]octan-3-yl)pyrimidin-5-yl)ethynyl)phenyl)butan-2-yl)-4,4,4-trifluoro-3,3-dimethyl-2-propionamidobutanamide], the negative logarithm of the EC50 (pEC50) is 8.07. On to `CC(=O)N[C@H](C(=O)N[C@@H](Cc1ccc(C#Cc2ccc(N3CC4CCC(C3)N4C3COC3)nc2)cc1)[C@@H](O)CN(Cc1c(F)cc(-c2ccn(C(F)F)n2)cc1F)NC(=O)[C@@H](NC(C)=O)C(C)(C)C(F)(F)F)C(C)(C)C(F)(F)F` [Example 182, (2S)-2-acetamido-N-((2S,3S)-4-(2-((S)-2-acetamido-4,4,4-trifluoro-3,3-dimethylbutanoyl)-1-(4-(1-(difluoromethyl)-1H-pyrazol-3-yl)-2,6-difluorobenzyl)hydrazinyl)-3-hydroxy-1-(4-((6-(8-(oxetan-3-yl)-3,8-diazabicyclo[3.2.1]octan-3-yl)pyridin-3-yl)ethynyl)phenyl)butan-2-yl)-4,4,4-trifluoro-3,3-dimethylbutanamide], for which the pEC50 is 8.05. For the compound `COC(=O)N[C@H](C(=O)N[C@@H](Cc1ccc(C#Cc2ccc(N3CC4CCC(C3)N4C3COC3)nc2)cc1)[C@@H](O)CN(Cc1c(F)cc(-c2ccn(C(F)F)n2)cc1F)NC(=O)[C@@H](NC(=O)OC1CC1)C(C)(C)C)C(C)(C)C(F)(F)F` [Example 187, cyclopropyl ((5S,8S,9S,14S)-11-(4-(1-(difluoromethyl)-1H-pyrazol-3-yl)-2,6-difluorobenzyl)-9-hydroxy-15,15-dimethyl-8-(4-((6-(8-(oxetan-3-yl)-3,8-diazabicyclo[3.2.1]octan-3-yl)pyridin-3-yl)ethynyl)benzyl)-3,6,13-trioxo-5-(1,1,1-trifluoro-2-methylpropan-2-yl)-2-oxa-4,7,11,12-tetraazahexadecan-14-yl)carbamate], the pEC50 is 8.33. On to `COC(=O)N[C@H](C(=O)N[C@@H](Cc1ccc(-c2ccc(N3C[C@H]4C[C@@H]3CN4C3COC3)nc2)cc1)[C@@H](O)CN(Cc1c(F)cc(-c2ccn(CC(F)F)n2)cc1F)NC(=O)[C@@H](NC(=O)OC)C(C)(C)C(F)(F)F)C(C)(C)C(F)(F)F` [Example 188, methyl ((5S,8S,9S,14S)-11-(4-(1-(2,2-difluoroethyl)-1H-pyrazol-3-yl)-2,6-difluorobenzyl)-16,16,16-trifluoro-9-hydroxy-15,15-dimethyl-8-(4-(6-((1R,4R)-5-(oxetan-3-yl)-2,5-diazabicyclo[2.2.1]heptan-2-yl)pyridin-3-yl)benzyl)-3,6,13-trioxo-5-(1,1,1-trifluoro-2-methylpropan-2-yl)-2-oxa-4,7,11,12-tetraazahexadecan-14-yl)carbamate], for which the negative-log EC50 (pEC50) was 8.05. Consider `COC(=O)N[C@H](C(=O)N[C@@H](Cc1ccc(-c2cnc(N3CC4CCC(C3)N4C3COC3)nc2)cc1)[C@@H](O)CN(Cc1c(F)cc(-c2cn(C(F)F)cn2)cc1F)NC(=O)[C@@H](NC(=O)OC)C(C)(C)C(F)(F)F)C(C)(C)C(F)(F)F` [Example 189, Methyl ((5S,8S,9S,14S)-11-(4-(1-(difluoromethyl)-1H-imidazol-4-yl)-2,6-difluorobenzyl)-16,16,16-trifluoro-9-hydroxy-15,15-dimethyl-8-(4-(2-(8-(oxetan-3-yl)-3,8-diazabicyclo[3.2.1]octan-3-yl)pyrimidin-5-yl)benzyl)-3,6,13-trioxo-5-(1,1,1-trifluoro-2-methylpropan-2-yl)-2-oxa-4,7,11,12-tetraazahexadecan-14-yl)carbamate], for which the pEC50 was 8.26. `COC(=O)N[C@H](C(=O)NN(Cc1c(F)cc(-c2cn(C(F)F)cn2)cc1F)C[C@H](O)[C@H](Cc1ccc(-c2cnc(N3CC4CCC(C3)N4C3COC3)nc2)cc1)NC(=O)[C@@H](NC(=O)OC)C(C)(C)C(F)(F)F)C(C)(C)C` [Example 190, methyl ((5S,8S,9S,14S)-11-(4-(1-(difluoromethyl)-1H-imidazol-4-yl)-2,6-difluorobenzyl)-9-hydroxy-15,15-dimethyl-8-(4-(2-(8-(oxetan-3-yl)-3,8-diazabicyclo[3.2.1]octan-3-yl)pyrimidin-5-yl)benzyl)-3,6,13-trioxo-5-(1,1,1-trifluoro-2-methylpropan-2-yl)-2-oxa-4,7,11,12-tetraazahexadecan-14-yl)carbamate]: the pEC50 was 8.15.

On to `COC(=O)N[C@H](C(=O)NN(Cc1c(F)cc(-c2ccn(CC(F)F)n2)cc1F)C[C@H](O)[C@H](Cc1ccc(-c2cnc(N3CC4CCC(C3)N4C3COC3)nc2)cc1)NC(=O)[C@@H](NC(=O)OC)C(C)(C)C(F)(F)F)C(C)(C)C` [Example 193, Methyl ((5S,8S,9S,14S)-11-(4-(1-(2,2-difluoroethyl)-1H-pyrazol-3-yl)-2,6-difluorobenzyl)-9-hydroxy-15,15-dimethyl-8-(4-(2-(8-(oxetan-3-yl)-3,8-diazabicyclo[3.2.1]octan-3-yl)pyrimidin-5-yl)benzyl)-3,6,13-trioxo-5-(1,1,1-trifluoro-2-methylpropan-2-yl)-2-oxa-4,7,11,12-tetraazahexadecan-14-yl)carbamate], for which the pEC50 is 8.56. Same read-out and setting: the same measure for `COC(=O)N[C@H](C(=O)N[C@@H](Cc1ccc(-c2ccc(N3CC4CC(C3)N4C3COC3)nc2)cc1)[C@@H](O)CN(Cc1c(F)cc(-c2ccn(C(F)F)n2)cc1F)NC(=O)[C@@H](NC(=O)OC)C(C)(C)C(F)(F)F)C(C)(C)C(F)(F)F` [Example 202, Methyl ((5S,8S,9S,14S)-11-(4-(1-(difluoromethyl)-1H-pyrazol-3-yl)-2,6-difluorobenzyl)-16,16,16-trifluoro-9-hydroxy-15,15-dimethyl-8-(4-(6-(6-(oxetan-3-yl)-3,6-diazabicyclo[3.1.1]heptan-3-yl)pyridin-3-yl)benzyl)-3,6,13-trioxo-5-(1,1,1-trifluoro-2-methylpropan-2-yl)-2-oxa-4,7,11,12-tetraazahexadecan-14-yl)carbamate]: 8.01. Still for that read-out and setting: then `COC(=O)N[C@H](C(=O)N[C@@H](Cc1ccc(-c2ccc(N3CC4CCC(C3)N4C3COC3)nc2)cc1)[C@@H](O)CN(Cc1c(F)cc(-c2nnc(C3CC3)o2)cc1F)NC(=O)[C@@H](NC(=O)OC)C(C)(C)C(F)(F)F)C(C)(C)C(F)(F)F` [Example 205, Methyl ((5S,8S,9S,14S)-11-(4-(5-cyclopropyl-1,3,4-oxadiazol-2-yl)-2,6-difluorobenzyl)-16,16,16-trifluoro-9-hydroxy-15,15-dimethyl-8-(4-(6-(8-(oxetan-3-yl)-3,8-diazabicyclo[3.2.1]octan-3-yl)pyridin-3-yl)benzyl)-3,6,13-trioxo-5-(1,1,1-trifluoro-2-methylpropan-2-yl)-2-oxa-4,7,11,12-tetraazahexadecan-14-yl)carbamate], with 8.28.
